Data on twelve molecules can be found in patent US20160243015A1, “SKIN LIGHTENING COMPOSITION” (Conopco, Inc., d/b/a UNILEVER, priority 2013, published 2016).

The subject of assay [1] is Melanoderm cultures (human keratinocytes and melanocytes), melanin production. The assay is described as follows: Assay of pigment production by Living Skin Equivalents (Melanoderm). Type of assay: cell-based. Also noted: inhibition: dose or concentration left out as unconfirmed. As to conditions: 14 days, melanin normalized to protein levels; for % inhibition of melanin production compared to vehicle control: 10 μM; for inhibition: Homo sapiens, 336 h, read-out: % inhibition of melanin production compared to vehicle control. The source says: Assay of pigment production by Living Skin Equivalents (Melanoderms™)
So called reconstructed pigmented ‘skin’ cultures containing keratinocytes and melanocytes are commercially available and, for example, can be purchased from MatTek Corp, 200, Homer Avenue, Ashland, Mass., USA, under the trade name Melanoderm™. Melanoderms™ (catalogue reference MEL-300) containing melanocytes from […] donor skin were maintained in EPI-100-NMM113 media following the manufacturer's instructions and using standard methods for the maintenance of cultured mammalian cells under aseptic conditions. The Melanoderm™ cultures were treated with test agents for a total of 14 days. During the 14 day culture period the melanocytes in the Melanoderm™ cultures synthesise melanin in specialised vesicular structures called melanosomes. The pigmented melanosomes are transferred to the adjacent keratinocytes and the transferred-melanosomes tend to accumulate over the nucleus of the keratinocytes. This process is the same as occurs in skin in vivo and accordingly the Melanoderm™ culture is considered to be a very good test ‘skin tissue’ to mimic the effect of the skin pigmentation process in vivo. A compound that leads to a reduction in melanin production in the Melanoderm™ culture over 14 days by 10% or more is considered to have a positive pigment reducing effect. It is important that the reduction in pigment occurs without substantive loss of cell viability such that the inhibitory effect of the test compound is due to its biological function rather than due to cell toxicity.
Culture media changes and re-dosing of compounds at selected concentrations took place every 2 or 3 days during the test period. Melanoderm™ cultures were also treated with control materials including the vehicle (dimethylsulphoxide (DMSO)) used to dissolve the test material and a positive control material known to lead to the synthesis of reduced amounts of melanin in the cultures. 4-ethylresorcinol was used as a positive control. After 14 days culture, transmitted-light microscopy images were captured for every culture using a Leica DM IL microscope at ×20 magnification.
The cell viability of the cultures was assessed using the so called WST-1 (Water Soluble Tetrazolium Salt-1) assay purchased from Roche Applied Science and following the manufacturer's instructions. The stable tetrazolium salt WST-1 is cleaved to a soluble formazan dye by a complex cellular mechanism that occurs primarily at the cell surface. This bioreduction is largely dependent on the glycolytic production of NADPH in viable cells. Therefore, the amount of soluble formazan dye formed in the culture medium directly correlates to the number of metabolically active cells in the culture. Cultures were incubated with WST-1 in the medium for 1 hour and production of formazan measured at 450 nm using a spectrophotometer plate reader, e.g. a BMG Labtech FLUOstar plate reader. Cultures were considered ‘viable’ if they generated greater than 80% of the control value of formazan product. Subsequently the culture was washed briefly in phosphate buffer solution (PBS) and total melanin and protein extracted together from each culture using 250 μl Solvable™ (Perkin Elmer product 6NE9100) reagent at 60° C. overnight as recommended by the manufacturer. The total protein content using a sample of the extracts was determined using the so called BCA (bicinchoninic acid) assay. The BCA assay may be purchased from Pierce Chemical Company and conducted following the manufacturer's instructions. Melanin was determined by measuring the absorbance at 485 nm, for example using a BMG Labtech FLUOstar plate reader. The amount of melanin extracted from each culture was determined by reference to a standard synthetic-melanin curve (Sigma Aldrich Chemical Company catalogue reference M8631). […]

Assay [2] deals with T1, human tyrosinase enzyme (Homo sapiens, UniProt P14679).
T1 construct: Human neonatal darkly pigmented melanocytes lysate was used as a source of tyrosinase enzyme; host or cells: human neonatal darkly pigmented melanocytes (crude NP-40 lysate supernatant)
T1 sequence (P14679 19-529): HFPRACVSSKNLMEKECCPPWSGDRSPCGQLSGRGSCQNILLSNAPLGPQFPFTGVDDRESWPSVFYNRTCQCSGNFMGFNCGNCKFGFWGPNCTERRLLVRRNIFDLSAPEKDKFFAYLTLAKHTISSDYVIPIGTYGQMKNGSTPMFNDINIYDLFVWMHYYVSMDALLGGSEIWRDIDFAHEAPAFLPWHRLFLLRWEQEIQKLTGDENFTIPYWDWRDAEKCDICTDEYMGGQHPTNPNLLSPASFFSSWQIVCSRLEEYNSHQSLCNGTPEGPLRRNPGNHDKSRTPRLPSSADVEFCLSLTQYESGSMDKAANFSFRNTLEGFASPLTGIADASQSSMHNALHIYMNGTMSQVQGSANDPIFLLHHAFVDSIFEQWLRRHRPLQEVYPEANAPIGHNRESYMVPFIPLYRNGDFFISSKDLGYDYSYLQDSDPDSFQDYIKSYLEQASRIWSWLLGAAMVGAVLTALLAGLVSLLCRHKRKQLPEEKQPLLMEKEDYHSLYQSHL
The assay is described as follows: Tyrosinase inhibition assay (melanocyte lysate, L-DOPA/MBTH). Type of assay: biochemical.
Procedure: Human neonatal darkly pigmented melanocytes lysate was used as a source of tyrosinase enzyme. The human melanocyte cells were purchased from Cascade Biologics (Code: C-202-5C) and cultured using standard methods. A confluent 25 cm^2 flask of melanocytes was washed with 2 ml of ice-cold PBS (phosphate buffered saline), followed by incubation with 1 ml of (0.025% w/v) Trypsin (0.01% w/v) EDTA (ethylenediamine tetraacetic acid) solution for 2 minutes at 37° C. to release the adherent cells. Trypsin was neutralized by the addition of 3 ml ‘neutralizer’ solution (sterile PBS solution containing 0.5% w/vnewborn bovine serum). […] The protein content in the lysate was measured by the Bradford reagent method (bovine serum albumin standard). […]
The solution phase tyrosinase activity assay was initiated by mixing 50 μl of 50 mM potassium phosphate buffer (pH 6.8), 60 μl of 10 mM MBTH (3-Methyl-2-benzothiazolinonhydrazon hydrochloride hydrate) in 10 mM potassium phosphate buffer, 30 μl of 10 mM L-DOPA (L-3,4-dihydroxyphenylalanine) in 10 mM potassium phosphate buffer, 4 μl of melanocytic cell extract (about 2 μg/μl protein), and 6 μl of distilled water (to make up the volume to 150 μl), and incubated for about 1 hour at 37° C. […] Then 200 μl of the supernatant was transferred to a 96-well flat-bottom plate, and the OD (optical density) read in a TECAN plate-reader (540 nm transmission). […]

`Cc1nc(NC(=S)NC(=O)COc2ccccc2)ccc1I` [S21, N-[[(5-iodo-6-methyl-2-pyridiny)lamino]-thioxomethyl]-2-phenoxyacetamide]: in assay [1], the “% inhibition of melanin production compared to vehicle control” value (“% inhibition of melanin production” below) was determined as 39% and the inhibition lay in the range of 30 to 40%.

Consider `CC(C)(C)c1ccc(OCC(=O)NC(=S)Nc2ccc(I)cn2)cc1` [S19, N-[[(5-iodo-2-pyridinyl)-amino]-thioxomethyl]-2-[4-(1,1-dimethylethyl)phenoxy]-acetamide], for which, in assay [1], the “% inhibition of melanin production” value was found to be 22% and the inhibition is 20 to 30%.

For `Cc1cccc(OCC(=O)NC(=S)Nc2ccc(I)cn2)c1` [S20, N-[[(5-iodo-2-pyridinyl)-amino]-thioxomethyl]-2-(3-methylphenoxy)-acetamide], in assay [1], the “% inhibition of melanin production” value is given as 22% and the inhibition lay in the range of 20 to 30%.

As to `O=C(COc1ccc(Cl)cc1)NC(=S)Nc1ccc(I)cn1` [S18, N-[[(5-iodo-2-pyridinyl)-amino]-thioxomethyl]-2-(4-chlorophenoxy)-acetamide], in assay [1], the “% inhibition of melanin production” value turned out to be 28% and the inhibition was in the range of 20 to 30%.

In the case of `CC(C)c1ccc(OCC(=O)NC(=S)Nc2ccc(Cl)cn2)cc1` [S16, N-[[(5-chloro-2-pyridinyl)-amino]-thioxomethyl]-2-[4-(1-methylethyl)-phenoxy]-acetamide], in assay [1], the “% inhibition of melanin production” value amounted to 38% and the inhibition was in the range of 30 to 40%.

Turning to `CCc1ccc(O)cc1O` [4-ethyl resorcinol], testing at 10 µM in assay [2] gave an inhibition of 29%.

As to `O=C(COc1ccccc1)NC(=S)Nc1ccc(I)cn1` [NC-0475, N-[[(5-iodo-2-pyridinyl)-amino]-thioxomethyl]-2-phenoxyacetamide], in assay [1], the “% inhibition of melanin production” value is reported as 53% and the inhibition is more than 50%.

`Cc1cc(OCC(=O)NC(=S)Nc2ccc(I)cn2)cc(C)c1Cl` [S15, N-[[(5-iodo-2-pyridinyl)-amino]-thioxomethyl]-2-(4-chloro-3,5-dimethylphenoxy)-acetamide]: in assay [1], the “% inhibition of melanin production” value was found to be 43% and the inhibition was in the range of 40 to 50%.

Take `O=C(COc1ccc(Cl)cc1Cl)NC(=S)Nc1ccc(I)cn1` [S17, N-[[(5-iodo-2-pyridinyl)-amino]-thioxomethyl]-2-(2,4-dichlorophenoxy)-acetamide]: in assay [1], the “% inhibition of melanin production” value worked out at 43% and the inhibition lay within 40 to 50%.

Take `O=C(COc1ccccc1)NC(=S)Nc1ccc(Cl)cn1` [S12, N-[[(5-chloro-2-pyridinyl)-amino]-thioxomethyl]-2-phenoxyacetamide]: in assay [1], the “% inhibition of melanin production” value is given as 47% and the inhibition is 40 to 50%.

`O=C(COc1ccccc1)NC(=S)Nc1ccccn1` [S14, N-[[2-pyridinylamino]-thioxomethyl]-2-phenoxyacetamide]: in assay [1], the inhibition was found to be 10%.

As to `Cc1ccc(OCC(=O)NC(=S)Nc2ccc(Cl)cn2)cc1` [S13, N-[[(5-chloro-2-pyridinyl)-amino]-thioxomethyl]-2-(4-methylphenoxy)-acetamide], in assay [1], the “% inhibition of melanin production” value is 35% and the inhibition lay within 30 to 40%.
